Reference: ChEMBL document CHEMBL1145679, “Perhydrogenation of tabersonine, ans Aspidiosperma indole alkaloid” (J Nat Prod, 1997)
pIC50, pKi: −log10 of the molar value. The source made the active and inactive calls. The rule behind the calls is not given here.

Key:
[1] = molecular target: D(2) dopamine receptor (Homo sapiens) (UniProt P14416); test: Displacement of radioligand from dopamine D2 receptor by liquid scintillation spectrometry
[2] = Displacement of radioligand from GABAA receptor by liquid scintillation spectrometry
[3] = Displacement of radioligand from GABAB receptor by liquid scintillation spectrometry
[4] = Displacement of radioligand from AMPA receptor by liquid scintillation spectrometry
[5] = Displacement of radioligand from NMDA receptor by liquid scintillation spectrometry
[6] = Displacement of radioligand from glycine receptor by liquid scintillation spectrometry
[7] = molecular target: T1, Glucocorticoid receptor (Homo sapiens) (UniProt P04150); test: Displacement of radioligand from glucocorticoid receptor by liquid scintillation spectrometry
T1 sequence (whole entry): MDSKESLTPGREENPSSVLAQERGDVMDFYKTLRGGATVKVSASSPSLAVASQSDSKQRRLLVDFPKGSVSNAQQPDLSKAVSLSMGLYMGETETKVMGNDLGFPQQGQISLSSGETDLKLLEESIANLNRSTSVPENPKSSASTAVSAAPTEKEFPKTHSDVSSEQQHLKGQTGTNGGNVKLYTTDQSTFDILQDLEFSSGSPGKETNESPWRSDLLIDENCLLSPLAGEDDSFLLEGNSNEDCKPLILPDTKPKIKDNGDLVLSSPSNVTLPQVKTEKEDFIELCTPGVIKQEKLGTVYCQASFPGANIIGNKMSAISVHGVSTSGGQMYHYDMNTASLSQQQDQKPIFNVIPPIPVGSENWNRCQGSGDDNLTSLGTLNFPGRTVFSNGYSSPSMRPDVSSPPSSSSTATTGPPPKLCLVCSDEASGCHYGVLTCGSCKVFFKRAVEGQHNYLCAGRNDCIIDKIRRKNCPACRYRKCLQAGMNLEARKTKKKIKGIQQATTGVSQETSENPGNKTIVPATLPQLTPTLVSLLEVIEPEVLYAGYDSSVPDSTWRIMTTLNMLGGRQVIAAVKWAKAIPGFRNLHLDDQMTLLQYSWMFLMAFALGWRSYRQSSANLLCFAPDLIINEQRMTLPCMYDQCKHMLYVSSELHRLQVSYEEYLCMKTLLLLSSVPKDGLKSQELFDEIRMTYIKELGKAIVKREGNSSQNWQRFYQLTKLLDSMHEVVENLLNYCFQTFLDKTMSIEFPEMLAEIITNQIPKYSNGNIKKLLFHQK

[8] = Displacement of radioligand from muscarinic receptor by liquid scintillation spectrometry
[9] = Displacement of radioligand from potassium channel by liquid scintillation spectrometry
[10] = Displacement of radioligand from calcium channel by liquid scintillation spectrometry
[11] = molecular target: T2, 5-hydroxytryptamine receptor 1A (Homo sapiens, UniProt P08908); test: Displacement of radioligand from 5HT1A receptor by liquid scintillation spectrometry
T2 sequence (P08908 whole entry): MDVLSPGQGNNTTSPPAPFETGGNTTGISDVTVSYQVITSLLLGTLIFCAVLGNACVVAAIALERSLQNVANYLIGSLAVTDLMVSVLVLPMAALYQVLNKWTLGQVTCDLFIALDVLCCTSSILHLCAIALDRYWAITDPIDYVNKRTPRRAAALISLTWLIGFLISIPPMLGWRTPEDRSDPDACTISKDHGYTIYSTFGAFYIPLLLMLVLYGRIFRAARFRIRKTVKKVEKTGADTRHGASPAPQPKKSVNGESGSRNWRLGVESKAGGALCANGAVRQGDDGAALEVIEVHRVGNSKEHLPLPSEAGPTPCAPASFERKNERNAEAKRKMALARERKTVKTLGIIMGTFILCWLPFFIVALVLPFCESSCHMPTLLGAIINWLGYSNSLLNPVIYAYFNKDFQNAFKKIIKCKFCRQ

[12] = molecular target: 5-hydroxytryptamine receptor 2A (Homo sapiens, UniProt P28223); test: Displacement of radioligand from 5HT2 receptor by liquid scintillation spectrometry
[13] = molecular target: T3, 5-hydroxytryptamine receptor 3A (Homo sapiens, UniProt P46098); test: Displacement of radioligand from 5HT3 receptor by liquid scintillation spectrometry
T3 sequence (P46098 whole entry): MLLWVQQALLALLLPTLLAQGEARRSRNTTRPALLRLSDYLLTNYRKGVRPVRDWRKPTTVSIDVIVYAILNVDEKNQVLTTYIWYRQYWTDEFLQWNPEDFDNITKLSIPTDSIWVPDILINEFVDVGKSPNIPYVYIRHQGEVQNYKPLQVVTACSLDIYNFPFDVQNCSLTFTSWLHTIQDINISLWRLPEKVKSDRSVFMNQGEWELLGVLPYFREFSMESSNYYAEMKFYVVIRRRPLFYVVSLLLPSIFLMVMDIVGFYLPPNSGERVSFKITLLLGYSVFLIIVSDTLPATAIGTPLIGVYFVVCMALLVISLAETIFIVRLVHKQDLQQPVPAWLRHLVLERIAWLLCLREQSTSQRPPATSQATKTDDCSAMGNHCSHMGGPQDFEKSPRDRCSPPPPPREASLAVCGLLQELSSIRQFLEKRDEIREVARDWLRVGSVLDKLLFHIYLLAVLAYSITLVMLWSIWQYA

[14] = molecular target: T4, Adrenergic receptor alpha-1 (Rattus norvegicus, UniProt P15823+P23944+P43140); test: Displacement of radioligand from rat alpha1 adrenergic receptor by liquid scintillation spectrometry
T4 sequence (P15823 whole entry): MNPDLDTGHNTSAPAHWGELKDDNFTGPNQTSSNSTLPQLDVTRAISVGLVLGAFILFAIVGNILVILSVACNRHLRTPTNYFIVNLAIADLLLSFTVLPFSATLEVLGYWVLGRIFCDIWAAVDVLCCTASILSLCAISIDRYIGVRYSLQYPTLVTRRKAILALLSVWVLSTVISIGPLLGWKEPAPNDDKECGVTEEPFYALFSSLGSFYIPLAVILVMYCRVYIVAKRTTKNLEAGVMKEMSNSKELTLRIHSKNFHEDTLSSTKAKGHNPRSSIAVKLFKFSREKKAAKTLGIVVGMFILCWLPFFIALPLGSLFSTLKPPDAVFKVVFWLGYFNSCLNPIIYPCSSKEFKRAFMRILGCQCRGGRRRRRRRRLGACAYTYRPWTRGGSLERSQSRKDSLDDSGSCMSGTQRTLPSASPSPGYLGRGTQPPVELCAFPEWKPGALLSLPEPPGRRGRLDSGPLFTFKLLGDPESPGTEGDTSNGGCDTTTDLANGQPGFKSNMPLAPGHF
T4 sequence (P23944 whole entry): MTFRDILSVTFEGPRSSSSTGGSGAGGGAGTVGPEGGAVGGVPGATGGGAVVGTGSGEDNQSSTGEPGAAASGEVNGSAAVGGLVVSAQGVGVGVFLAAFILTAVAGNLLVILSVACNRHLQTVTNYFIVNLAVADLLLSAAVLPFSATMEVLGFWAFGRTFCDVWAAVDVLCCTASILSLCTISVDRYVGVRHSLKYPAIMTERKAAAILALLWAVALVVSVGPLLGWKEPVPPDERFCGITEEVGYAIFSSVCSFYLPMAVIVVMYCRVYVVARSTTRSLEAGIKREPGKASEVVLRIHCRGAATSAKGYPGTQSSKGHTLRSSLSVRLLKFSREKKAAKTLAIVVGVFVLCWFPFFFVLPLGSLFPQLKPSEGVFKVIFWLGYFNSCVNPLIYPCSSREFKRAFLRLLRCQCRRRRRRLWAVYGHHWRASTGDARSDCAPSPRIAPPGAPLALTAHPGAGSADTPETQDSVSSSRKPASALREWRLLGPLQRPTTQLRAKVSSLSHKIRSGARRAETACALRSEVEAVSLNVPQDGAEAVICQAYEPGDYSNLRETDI
T4 sequence (P43140 whole entry): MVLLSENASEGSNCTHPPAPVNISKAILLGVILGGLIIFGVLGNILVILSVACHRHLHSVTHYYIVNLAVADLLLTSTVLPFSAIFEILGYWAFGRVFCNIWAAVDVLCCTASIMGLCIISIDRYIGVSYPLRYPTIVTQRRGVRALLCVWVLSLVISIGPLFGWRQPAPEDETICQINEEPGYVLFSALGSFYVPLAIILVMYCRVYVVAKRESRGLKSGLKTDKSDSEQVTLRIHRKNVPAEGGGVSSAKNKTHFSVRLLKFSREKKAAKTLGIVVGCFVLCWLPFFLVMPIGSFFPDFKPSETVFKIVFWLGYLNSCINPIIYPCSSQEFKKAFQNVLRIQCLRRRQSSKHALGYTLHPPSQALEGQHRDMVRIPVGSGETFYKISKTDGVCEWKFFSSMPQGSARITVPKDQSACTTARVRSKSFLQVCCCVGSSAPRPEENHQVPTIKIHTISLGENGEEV

[15] = molecular target: T5, Adrenergic receptor alpha-2 (Rattus norvegicus, UniProt P22086+P19328+P22909); test: Displacement of radioligand from rat alpha2 adrenergic receptor by liquid scintillation spectrometry
T5 sequence (P22086 whole entry): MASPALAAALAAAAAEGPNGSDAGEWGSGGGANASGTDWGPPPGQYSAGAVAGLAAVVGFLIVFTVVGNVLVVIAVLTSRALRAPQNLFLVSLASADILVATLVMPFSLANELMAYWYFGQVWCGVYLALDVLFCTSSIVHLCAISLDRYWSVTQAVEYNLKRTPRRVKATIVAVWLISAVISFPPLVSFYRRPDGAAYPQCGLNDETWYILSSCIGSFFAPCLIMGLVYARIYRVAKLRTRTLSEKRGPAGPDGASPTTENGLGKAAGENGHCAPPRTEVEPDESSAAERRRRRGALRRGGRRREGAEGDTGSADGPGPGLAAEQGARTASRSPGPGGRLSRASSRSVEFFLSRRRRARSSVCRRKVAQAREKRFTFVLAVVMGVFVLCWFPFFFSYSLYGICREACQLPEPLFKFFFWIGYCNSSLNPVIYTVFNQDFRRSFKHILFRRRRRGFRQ
T5 sequence (P19328 whole entry): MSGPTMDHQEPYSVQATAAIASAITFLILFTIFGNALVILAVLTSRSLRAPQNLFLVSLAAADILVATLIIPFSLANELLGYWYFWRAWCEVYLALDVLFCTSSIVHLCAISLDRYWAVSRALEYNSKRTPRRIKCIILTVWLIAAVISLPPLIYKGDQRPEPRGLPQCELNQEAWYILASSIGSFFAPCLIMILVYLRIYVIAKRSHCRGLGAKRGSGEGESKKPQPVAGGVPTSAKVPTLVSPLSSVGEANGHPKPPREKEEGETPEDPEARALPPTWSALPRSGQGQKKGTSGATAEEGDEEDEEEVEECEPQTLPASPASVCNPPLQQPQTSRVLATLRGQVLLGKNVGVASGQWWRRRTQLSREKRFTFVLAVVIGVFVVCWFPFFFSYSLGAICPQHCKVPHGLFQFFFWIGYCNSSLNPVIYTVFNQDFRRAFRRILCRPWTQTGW
T5 sequence (P22909 whole entry): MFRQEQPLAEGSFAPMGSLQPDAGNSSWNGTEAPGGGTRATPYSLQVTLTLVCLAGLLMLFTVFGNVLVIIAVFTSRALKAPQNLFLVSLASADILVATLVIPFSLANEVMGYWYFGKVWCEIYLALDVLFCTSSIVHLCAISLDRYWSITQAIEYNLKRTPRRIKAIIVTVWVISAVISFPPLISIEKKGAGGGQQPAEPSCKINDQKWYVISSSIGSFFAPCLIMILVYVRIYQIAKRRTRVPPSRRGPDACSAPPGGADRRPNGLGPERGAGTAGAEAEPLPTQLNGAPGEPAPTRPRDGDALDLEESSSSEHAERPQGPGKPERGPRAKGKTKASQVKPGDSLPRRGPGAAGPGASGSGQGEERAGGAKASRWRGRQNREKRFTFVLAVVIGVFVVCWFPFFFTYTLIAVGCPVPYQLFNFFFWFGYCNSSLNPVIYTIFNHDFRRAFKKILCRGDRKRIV

[16] = Displacement of radioligand from rat sodium channel batrachotoxin binding site by liquid scintillation spectrometry
[17] = molecular target: D(1A) dopamine receptor (Homo sapiens) (UniProt P21728); test: Displacement of radioligand from dopamine D1 receptor by liquid scintillation spectrometry
D(1A) dopamine receptor (Homo sapiens), sequence (P21728 whole entry): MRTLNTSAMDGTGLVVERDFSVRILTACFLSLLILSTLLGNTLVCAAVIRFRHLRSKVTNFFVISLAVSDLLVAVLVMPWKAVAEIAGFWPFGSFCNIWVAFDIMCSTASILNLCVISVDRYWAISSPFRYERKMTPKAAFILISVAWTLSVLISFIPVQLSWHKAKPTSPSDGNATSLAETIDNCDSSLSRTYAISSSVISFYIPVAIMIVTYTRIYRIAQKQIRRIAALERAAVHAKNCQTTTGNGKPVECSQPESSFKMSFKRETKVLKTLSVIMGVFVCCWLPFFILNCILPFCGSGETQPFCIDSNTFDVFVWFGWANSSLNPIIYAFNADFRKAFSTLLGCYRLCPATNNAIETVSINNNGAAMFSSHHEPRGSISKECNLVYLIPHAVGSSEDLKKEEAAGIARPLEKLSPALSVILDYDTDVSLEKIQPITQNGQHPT

D(2) dopamine receptor (Homo sapiens), sequence (P14416 whole entry): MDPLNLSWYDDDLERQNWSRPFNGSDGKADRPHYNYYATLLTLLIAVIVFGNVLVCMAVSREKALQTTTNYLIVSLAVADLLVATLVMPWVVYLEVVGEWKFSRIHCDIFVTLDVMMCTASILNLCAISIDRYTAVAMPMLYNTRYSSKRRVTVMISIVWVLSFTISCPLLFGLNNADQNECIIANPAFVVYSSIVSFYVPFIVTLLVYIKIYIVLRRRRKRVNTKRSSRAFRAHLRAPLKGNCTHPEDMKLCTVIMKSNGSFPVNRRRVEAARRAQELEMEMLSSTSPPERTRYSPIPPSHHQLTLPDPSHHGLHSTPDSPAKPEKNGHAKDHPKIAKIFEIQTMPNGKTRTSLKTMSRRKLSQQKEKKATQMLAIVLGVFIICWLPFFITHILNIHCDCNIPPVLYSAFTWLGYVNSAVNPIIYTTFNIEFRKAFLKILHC
5-hydroxytryptamine receptor 2A, sequence (P28223 whole entry): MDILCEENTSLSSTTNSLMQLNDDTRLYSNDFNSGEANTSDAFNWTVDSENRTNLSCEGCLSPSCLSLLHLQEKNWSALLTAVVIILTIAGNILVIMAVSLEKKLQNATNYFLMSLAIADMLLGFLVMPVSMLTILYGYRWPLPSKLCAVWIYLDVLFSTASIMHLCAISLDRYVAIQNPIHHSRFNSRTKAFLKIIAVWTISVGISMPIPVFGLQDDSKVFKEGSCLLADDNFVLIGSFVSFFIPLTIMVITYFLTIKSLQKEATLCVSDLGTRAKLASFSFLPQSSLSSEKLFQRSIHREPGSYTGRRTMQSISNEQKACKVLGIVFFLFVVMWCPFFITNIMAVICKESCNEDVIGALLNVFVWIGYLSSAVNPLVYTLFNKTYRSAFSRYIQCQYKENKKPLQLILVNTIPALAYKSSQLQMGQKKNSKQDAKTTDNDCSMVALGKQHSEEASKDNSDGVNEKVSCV

| Compound | Activity [1] | Activity [2] | Activity [3] | Activity [4] | Activity [5] | Activity [6] | Activity [7] | Activity [8] | Activity [9] | Activity [10] | pIC50 [11] | pIC50 [12] | pIC50 [13] | Ki [14] [µM] | Ki [15] [µM] | pKi [16] | Activity [17] |
| --- | --- | --- | --- | --- | --- | --- | --- | --- | --- | --- | --- | --- | --- | --- | --- | --- | --- |
| CC[C@]12CCCN3CC[C@@]4([C@H]5CCCC[C@H]5N[C@H]4[C@@H](C(=O)OC)C1)[C@@H]32.Cl.Cl | inactive | inactive | inactive | inactive | inactive | inactive | inactive | inactive | inactive | inactive | < 5.00 | < 5.00 | < 4.00 | > 100 | > 100 | 5.43 | inactive |
| COc1ccc(C(=O)O[C@H]2CC[C@@]3(C)[C@@H]4CC[C@H]5[C@]6(O)C[C@H](O)[C@@]7(O)[C@@H](CN8C[C@@H](C)CC[C@H]8[C@@]7(C)O)[C@]6(O)C[C@@]53O[C@]24O)cc1OC [VERATRIDINE] |  |  |  |  |  |  |  |  |  |  |  |  |  |  |  | 5.68 |  |
| CC[C@]12CCCN3CC[C@@]4([C@H]5CCCC[C@H]5N[C@H]4[C@@H](C(=O)[O-])C1)[C@@H]32.[Na+] | inactive | inactive | inactive | inactive | inactive | inactive | inactive | inactive | inactive | inactive | < 5.00 | < 5.00 | < 4.00 | > 100 | > 100 | < 5.00 | inactive |
